Experimental data from patent US20240150377A1, “MODULATORS OF CYSTIC FIBROSIS TRANSMEMBRANE CONDUCTANCE REGULATOR” (VERTEX PHARMACEUTICALS INCORPORATED, priority 2020, published 2024).
Read-outs that look alike come from different tables or passages of the source. Blank lines part the entries; values can stand above or below the molecule they belong to.

Target: T1, CFTR (Homo sapiens, UniProt P13569, DEL508-508)
T1 construct: endogenous in cells; host or cells: primary human bronchial epithelial cells from CF subjects (F508del/MF-HBE), differentiated at air-liquid interface
Assay: HBE assay: Ussing chamber assay of CFTR-mediated short-circuit currents
Format: cell-based
Details: for EC50: read-out: HBE EC50
In short: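 CFTR-mediated Isc (μA/cm²) equals the peak response to apical 20 μM forskolin minus the residual after a 20 μM each BPO/GlyH-101/CFTR inhibitor 172 cocktail, recorded in Ussing chambers at Vhold 0 mV, 37 °C, pH 7.4, with 30 μM apical amiloride. Cells were F508del/MF HBE cultures preincubated 18-24 h with corrector (concentration range or 10 μM) plus 1 μM ivacaftor in 20% human serum.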

[1] = Table 10, read-out: HBE Max activity (%)
[2] = Table 10, read-out: HBE activity at 10 (μM) (%)
[3] = Table 11, read-out: HBE Activity at 10 μM (%)
[4] = Table 11, read-out: HBE Max Activity (%)
[5] = Table 13, read-out: HBE Max Activity (%)

T1 sequence (P13569 with tags, fused parts or gaps DEL508-508): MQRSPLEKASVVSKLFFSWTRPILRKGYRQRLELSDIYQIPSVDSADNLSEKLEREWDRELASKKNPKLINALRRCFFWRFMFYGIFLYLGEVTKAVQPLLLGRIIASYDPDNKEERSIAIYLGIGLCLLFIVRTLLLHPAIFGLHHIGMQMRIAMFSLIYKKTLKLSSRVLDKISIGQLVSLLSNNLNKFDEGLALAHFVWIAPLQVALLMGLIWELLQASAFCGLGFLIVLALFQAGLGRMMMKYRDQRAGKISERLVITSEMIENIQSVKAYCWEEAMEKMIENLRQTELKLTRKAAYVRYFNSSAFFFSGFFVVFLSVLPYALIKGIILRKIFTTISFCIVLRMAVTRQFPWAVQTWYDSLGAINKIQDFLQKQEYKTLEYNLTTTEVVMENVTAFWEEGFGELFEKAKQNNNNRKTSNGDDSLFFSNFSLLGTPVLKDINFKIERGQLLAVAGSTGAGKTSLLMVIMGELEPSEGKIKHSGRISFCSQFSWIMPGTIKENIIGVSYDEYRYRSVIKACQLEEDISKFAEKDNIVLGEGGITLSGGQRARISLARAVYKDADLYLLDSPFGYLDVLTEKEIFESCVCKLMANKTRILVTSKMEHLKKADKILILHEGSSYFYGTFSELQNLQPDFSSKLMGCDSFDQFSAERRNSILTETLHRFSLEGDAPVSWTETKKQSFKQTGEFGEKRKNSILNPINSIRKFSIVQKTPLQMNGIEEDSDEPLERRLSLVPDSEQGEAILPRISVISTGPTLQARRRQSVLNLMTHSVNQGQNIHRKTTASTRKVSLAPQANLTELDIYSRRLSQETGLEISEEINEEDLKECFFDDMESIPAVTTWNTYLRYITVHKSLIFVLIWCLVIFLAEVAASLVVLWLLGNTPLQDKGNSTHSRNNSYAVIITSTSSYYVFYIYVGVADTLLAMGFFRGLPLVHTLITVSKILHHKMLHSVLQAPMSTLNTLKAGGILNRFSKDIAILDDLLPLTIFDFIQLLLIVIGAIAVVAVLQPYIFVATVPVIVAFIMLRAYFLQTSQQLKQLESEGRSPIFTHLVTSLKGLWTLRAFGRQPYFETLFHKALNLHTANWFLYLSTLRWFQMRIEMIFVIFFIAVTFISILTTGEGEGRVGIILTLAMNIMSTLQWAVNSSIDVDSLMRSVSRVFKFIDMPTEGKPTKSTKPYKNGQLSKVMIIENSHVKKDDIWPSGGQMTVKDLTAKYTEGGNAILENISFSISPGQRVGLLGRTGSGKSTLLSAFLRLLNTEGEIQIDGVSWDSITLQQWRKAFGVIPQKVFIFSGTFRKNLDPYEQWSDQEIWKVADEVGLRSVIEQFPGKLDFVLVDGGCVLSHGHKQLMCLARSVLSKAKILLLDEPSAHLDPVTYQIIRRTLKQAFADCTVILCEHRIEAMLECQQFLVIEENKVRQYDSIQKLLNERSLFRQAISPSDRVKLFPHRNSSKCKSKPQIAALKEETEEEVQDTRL

SMILES: Cc1cccc(C)c1-c1cc2nc(n1)NS(=O)(=O)c1cccc(c1)C(=O)N(Cc1cnnn1C)[C@H](CC(C)(C)C)CO2 [Compound 774]
- activation at 10 µM [3]: > 60%

SMILES: CNC(=O)COc1ccccc1CN1C(=O)c2cccc(c2)S(=O)(=O)Nc2nc(cc(-c3c(C)cccc3C)n2)OC[C@H]1CC(C)(C)C [Compound 775]
- activation at 10 µM [2]: > 60%

SMILES: CNC(=O)COc1ccccc1CN1C(=O)c2cccc(c2)S(=O)(=O)Nc2nc(cc(-c3c(C)cccc3C)n2)OC[C@H]1CC(C)(C)C [Compound 776]
- EC50 (Table 10): < 1000 nM
- Emax [1]: > 60%

SMILES: Cc1cccc(C)c1-c1cc2nc(n1)NS(=O)(=O)c1cccc(c1)C(=O)N(Cc1ccccc1OCC(=O)NN)[C@H](CC(C)(C)C)CO2 [Compound 777]
- activation at 10 µM [2]: > 60%

SMILES: CNC(=O)COc1ccc(CN2C(=O)c3cccc(c3)S(=O)(=O)Nc3nc(cc(-c4c(C)cccc4C)n3)OC[C@H]2CC(C)(C)C)cc1 [Compound 778]
- EC50 (Table 10): < 1000 nM
- Emax [1]: > 60%

SMILES: Cc1cccc(C)c1-c1cc2nc(n1)NS(=O)(=O)c1cccc(c1)C(=O)N(Cc1ccc(OCC(=O)N(C)C)cc1)[C@H](CC(C)(C)C)CO2 [Compound 779]
- EC50 (Table 10): < 1000 nM
- Emax [1]: > 60%

SMILES: Cc1cccc(C)c1-c1cc2nc(n1)NS(=O)(=O)c1cccc(c1)C(=O)N(Cc1ccc(OCC(N)=O)cc1)[C@H](CC(C)(C)C)CO2 [Compound 780]
- EC50 (Table 10): < 1000 nM
- Emax [1]: > 60%

SMILES: Cc1cccc(C)c1-c1cc2nc(n1)NS(=O)(=O)c1cccc(c1)C(=O)N(Cc1ccc(-c3cnc(N)nc3)cc1)[C@H](CC(C)(C)C)CO2 [Compound 782]
- EC50 (Table 10): < 1000 nM
- Emax [1]: > 60%

SMILES: COc1ncc(-c2ccc(CN3C(=O)c4cccc(c4)S(=O)(=O)Nc4nc(cc(-c5c(C)cccc5C)n4)OC[C@H]3CC(C)(C)C)cc2)cn1 [Compound 783]
- EC50 (Table 10): < 1000 nM
- Emax [1]: > 60%

SMILES: Cc1cccc(C)c1-c1cc2nc(n1)NS(=O)(=O)c1cccc(c1)C(=O)N(Cc1ccc3c(n1)C(C)CCO3)C(CC(C)(C)C)CO2 (stereo not shown) [Compound 794]
- Emax [1]: > 60%

SMILES: Cc1cccc(C)c1-c1cc2nc(n1)NS(=O)(=O)c1cccc(c1)C(=O)N(Cc1ccc([Si](C)(C)C)cc1)[C@H](CC(C)(C)C)CO2 [Compound 795]
- activation at 10 µM [2]: > 60%

SMILES: Cc1cccc(C)c1-c1cc2nc(n1)NS(=O)(=O)c1cccc(c1)C(=O)N(Cc1ccc(C3=CCCC3)cn1)[C@H](CC(C)(C)C)CO2 [Compound 810]
- EC50 (Table 11): < 1000 nM
- Emax [4]: > 60%

SMILES: Cc1cccc(C)c1-c1cc2nc(n1)NS(=O)(=O)c1cccc(c1)C(=O)N(CC1CCCOC1)[C@H](CC(C)(C)C)CO2 (stereo partly shown) [Compound 818]
- EC50 (Table 11): < 1000 nM
- Emax [4]: > 60%

SMILES: Cc1cccc(C)c1-c1cc2nc(n1)NS(=O)(=O)c1cccc(c1)C(=O)N(CC1CCCOC1)[C@H](CC(C)(C)C)CO2 (stereo partly shown) [Compound 819]
- EC50 (Table 11): < 1000 nM

SMILES: Cc1cccc(C)c1-c1cc2nc(n1)NS(=O)(=O)c1cccc(c1)C(=O)N(CC1CCOCC1)[C@H](CC(C)(C)C)CO2 [Compound 820]
- EC50 (Table 11): < 1000 nM
- Emax [4]: > 60%

SMILES: Cc1cccc(C(C)C)c1-c1cc2nc(n1)NS(=O)(=O)c1cccc(c1)C(=O)N(Cc1ccc(N3CCOCC3)cn1)[C@H](CC(C)(C)C)CO2 [Compound 821]
- activation at 10 µM [3]: > 60%
- EC50 (Table 11): < 1000 nM
- Emax [4]: > 60%

SMILES: Cc1cccc(C)c1-c1cc2nc(n1)NS(=O)(=O)c1cccc(c1)C(=O)N(Cc1cnn(C(C)C)c1)[C@H](CC(C)(C)C)CO2 [Compound 823]
- activation at 10 µM [2]: > 60%
- Emax [1]: > 60%

SMILES: CC(C)c1cccc(C(C)C)c1-c1cc2nc(n1)NS(=O)(=O)c1cccc(c1)C(=O)N(Cc1ccc(N3CCCCC3)cn1)[C@H](CC(C)(C)C)CO2 [Compound 829]
- activation at 10 µM [2]: > 60%

SMILES: CC(C)c1cccc(C(C)C)c1-c1cc2nc(n1)NS(=O)(=O)c1cccc(c1)C(=O)N(Cc1ncc(N3CCOCC3)cn1)[C@H](CC(C)(C)C)CO2 [Compound 830]
- Emax [1]: > 60%

SMILES: CC(C)c1cccc(C(C)C)c1-c1cc2nc(n1)NS(=O)(=O)c1cccc(c1)C(=O)N(Cc1ccc(N3CCOCC3)cn1)[C@H](CC(C)(C)C)CO2 [Compound 831]
- Emax [1]: > 60%

SMILES: Cc1cccc(C)c1-c1cc2nc(n1)NS(=O)(=O)c1cccc(c1)C(=O)N(CC1CCCCC1)[C@H](CC(C)(C)C)CO2 [Compound 832]
- activation at 10 µM [2]: > 60%

SMILES: Cc1cccc(C)c1-c1cc2nc(n1)NS(=O)(=O)c1cccc(c1)C(=O)N(CC1CCCCO1)[C@H](CC(C)(C)C)CO2 (stereo partly shown) [Compound 833]
- Emax [1]: > 60%

SMILES: Cc1cccc(C)c1-c1cc2nc(n1)NS(=O)(=O)c1cccc(c1)C(=O)N(CC1CCCO1)[C@H](CC(C)(C)C)CO2 (stereo partly shown) [Compound 835]
- EC50 (Table 10): < 1000 nM
- Emax [1]: > 60%

SMILES: Cc1cccc(C)c1-c1nc2nc(c1C)OC[C@@H](CC(C)(C)C)N(CC1CCCO1)C(=O)c1cccc(c1)S(=O)(=O)N2 (stereo partly shown) [Compound 836]
- Emax [1]: > 60%

SMILES: Cc1cccc(C)c1-c1cc2nc(n1)NS(=O)(=O)c1cccc(c1)C(=O)N(Cc1ncc(N3CC4(CCOCC4)C3)cn1)[C@H](CC(C)(C)C)CO2 [Compound 866]
- EC50 (Table 13): < 1000 nM
- Emax [5]: > 60%

SMILES: Cc1cccc(C)c1-c1cc2nc(n1)NS(=O)(=O)c1cccc(c1)C(=O)N(Cc1ncc(N3CC4(COC4)C3)cn1)[C@H](CC(C)(C)C)CO2 [Compound 867]
- EC50 (Table 13): < 1000 nM
- Emax [5]: > 60%

SMILES: COC1CC2(C1)CN(c1cnc(CN3C(=O)c4cccc(c4)S(=O)(=O)Nc4nc(cc(-c5c(C)cccc5C)n4)OC[C@H]3CC(C)(C)C)nc1)C2 [Compound 868]
- EC50 (Table 13): < 1000 nM
- Emax [5]: > 60%

SMILES: Cc1cccc(C)c1-c1cc2nc(n1)NS(=O)(=O)c1cccc(c1)C(=O)N(Cc1ncc(N3CC4(C3)CC(C)(C)C4)cn1)[C@H](CC(C)(C)C)CO2 [Compound 869]
- EC50 (Table 13): < 1000 nM
- Emax [5]: > 60%

SMILES: COC1(C)CCN(c2cnc(CN3C(=O)c4cccc(c4)S(=O)(=O)Nc4nc(cc(-c5c(C)cccc5C)n4)OC[C@H]3CC(C)(C)C)nc2)CC1 [Compound 870]
- activation at 10 µM (Table 13, read-out: HBE Activity at 10 μM (%)): > 600%
- EC50 (Table 13): < 1000 nM
- Emax [5]: > 60%

Now from value to molecule:

- EC50 (Table 10): < 1000 nM
- Emax [1]: > 60%
SMILES: COc1ccc(CN2C(=O)c3cccc(c3)S(=O)(=O)Nc3nc(cc(-c4c(C)cccc4C)n3)OC[C@H]2CC(C)(C)C)cc1 [Compound 770]

- activation at 10 µM [2]: > 60%
- EC50 (Table 10): < 1000 nM
- Emax [1]: > 60%
SMILES: Cc1cccc(C)c1-c1cc2nc(n1)NS(=O)(=O)c1cccc(c1)C(=O)N(Cc1ncccc1CCC(C)(C)ON)[C@H](CC(C)(C)C)CO2 [Compound 771]

- EC50 (Table 10): < 1000 nM
- Emax [1]: > 60%
SMILES: COc1cnc(CN2C(=O)c3cccc(c3)S(=O)(=O)Nc3nc(cc(-c4c(C)cccc4C)n3)OC[C@H]2CC(C)(C)C)nc1 [Compound 772]

- EC50 (Table 10): < 1000 nM
- Emax [1]: > 60%
SMILES: COc1ccnc(CN2C(=O)c3cccc(c3)S(=O)(=O)Nc3nc(cc(-c4c(C)cccc4C)n3)OC[C@H]2CC(C)(C)C)n1 [Compound 773]

- EC50 (Table 10): < 1000 nM
- Emax [1]: > 60%
SMILES: Cc1cccc(C)c1-c1cc2nc(n1)NS(=O)(=O)c1cccc(c1)C(=O)N(Cc1ccccc1OCC(C)(C)OO)[C@H](CC(C)(C)C)CO2 [Compound 781]

- EC50 (Table 11): < 1000 nM
- Emax [4]: > 60%
SMILES: Cc1cccc(C)c1-c1cc2nc(n1)NS(=O)(=O)c1cccc(c1)C(=O)N(Cc1cc(CO)ccn1)[C@H](CC(C)(C)C)CO2 [Compound 811]

- EC50 (Table 11): < 1000 nM
- Emax [4]: > 60%
SMILES: Cc1cccc(C)c1-c1cc2nc(n1)NS(=O)(=O)c1cccc(c1)C(=O)N(Cc1cc(C(C)(C)O)ccn1)[C@H](CC(C)(C)C)CO2 [Compound 812]

- EC50 (Table 11): < 1000 nM
- Emax [4]: > 60%
SMILES: Cc1cccc(C)c1-c1cc2nc(n1)NS(=O)(=O)c1cccc(c1)C(=O)N(Cc1nccc(C(C)(C)O)n1)[C@H](CC(C)(C)C)CO2 [Compound 813]

- EC50 (Table 11): < 1000 nM
- Emax [4]: > 60%
SMILES: Cc1cccc(C)c1-c1cc2nc(n1)NS(=O)(=O)c1cccc(c1)C(=O)N(Cc1nccc(C(C)(C)C)n1)[C@H](CC(C)(C)C)CO2 [Compound 814]

- EC50 (Table 11): < 1000 nM
- Emax [4]: > 60%
SMILES: Cc1cccc(C)c1-c1cc2nc(n1)NS(=O)(=O)c1cccc(c1)C(=O)N(Cc1ncc(C(C)(C)C)cn1)[C@H](CC(C)(C)C)CO2 [Compound 815]

- EC50 (Table 11): < 1000 nM
- Emax [4]: > 60%
SMILES: Cc1cccc(C)c1-c1cc2nc(n1)NS(=O)(=O)c1cccc(c1)C(=O)N(Cc1cccc(CO)n1)[C@H](CC(C)(C)C)CO2 [Compound 816]

- EC50 (Table 11): < 1000 nM
- Emax [4]: > 60%
SMILES: Cc1cccc(C)c1-c1cc2nc(n1)NS(=O)(=O)c1cccc(c1)C(=O)N(Cc1cccc(C(C)(C)O)n1)[C@H](CC(C)(C)C)CO2 [Compound 817]

- activation at 10 µM [2]: > 60%
SMILES: Cc1cccc(C)c1-c1cc2nc(n1)NS(=O)(=O)c1cccc(c1)C(=O)N(Cc1cn(C)nc1C)[C@H](CC(C)(C)C)CO2 [Compound 822]

- activation at 10 µM [2]: > 60%
SMILES: Cc1cccc(C)c1-c1cc2nc(n1)NS(=O)(=O)c1cccc(c1)C(=O)N(Cc1cnn(C)c1C)[C@H](CC(C)(C)C)CO2 [Compound 824]

- activation at 10 µM [2]: > 60%
SMILES: Cc1cccc(C)c1-c1cc2nc(n1)NS(=O)(=O)c1cccc(c1)C(=O)N(Cc1ccn(C)n1)[C@H](CC(C)(C)C)CO2 [Compound 825]

- activation at 10 µM [2]: > 60%
SMILES: Cc1cccc(C)c1-c1cc2nc(n1)NS(=O)(=O)c1cccc(c1)C(=O)N(Cc1cnn(C)c1)[C@H](CC(C)(C)C)CO2 [Compound 826]

- activation at 10 µM [2]: > 60%
SMILES: Cc1cccc(C)c1-c1cc2nc(n1)NS(=O)(=O)c1cccc(c1)C(=O)N(Cc1ccnn1C)[C@H](CC(C)(C)C)CO2 [Compound 827]

- activation at 10 µM [2]: > 60%
SMILES: Cc1cccc(C)c1-c1cc2nc(n1)NS(=O)(=O)c1cccc(c1)C(=O)N(Cc1cc(C)n(C)n1)[C@H](CC(C)(C)C)CO2 [Compound 828]
